Laboratory results from US20200085058A1, “SELECTIVE HERBICIDES BASED ON SUBSTITUTED THIEN-3-YL-SULPHONYLAMINO(THIO)CARBONYLTRIAZOLIN(THI)ONES AND SAFENERS” (Bayer CropScience Aktiengesellschaft, priority 2001, published 2020).

What was measured:
Assay type in all cases: in vivo
winter barley [1] = assay: Example A-5 post-emergence test/greenhouse, crop damage
Protocol: (§1) The active compound or safener components are in each case dissolved in a few ml (generally 2-3 ml) of solvent (generally acetone or N,N-dimethyl-formamide), and the solutions are combined and then—if appropriate after addition of an emulsifier—diluted with water to the desired concentration. In general, an aqueous spray liquor was prepared using 0.1% of the additive Renex-36.
(§2) The test plants are grown under controlled conditions (temperature, light, atmospheric humidity) in a greenhouse. The test plants are sprayed when they have reached a height of 5-15 cm. The concentration of the spray liquor is chosen such that the particular amounts of active compound desired are applied in 500 l of water/ha.
(§3) After spraying, the pots with the test plants are kept in a greenhouse chamber under controlled conditions (temperature, light, atmospheric humidity) until the test has ended. About three weeks after the application, the degree of damage to the crop plants is rated in % damage in comparison to the development of the untreated control.
(§4) The figures denote: • 0%=no damage (like untreated control) • 100%=total destruction/damage
(§5) Mefenpyr-diethyl was used as 100 EC and the compound of Ex. No. I-2 was used as 10 WP.

winter wheat [2] = assay: as above
Protocol: as §1, §2, §3, §4, §5

winter barley [3] = assay: Example A-4 post-emergence test/greenhouse, crop damage; details: safener alone 50 g of a.i./ha; Table A-4-4
Protocol: as §1, §2, §3, §4
(§6) Mefenpyr-diethyl was used as 100 EC.
(§7) The compounds of Ex. Nos. I-2 and I-13 were used as 10 WP.

winter wheat [4] = assay: as above; details: safener alone 50 g of a.i./ha; Table A-4-1
Protocol: as §1, §2, §3, §4, §6, §7

[5] = system: maize of the cultivar "Pioneer"; assay: Example A-3 post-emergence test/greenhouse, crop damage, Maize 2; details: 7 days after the application, Table A-3-2
Protocol: as §1, §2
(§8) After spraying, the pots with the test plants are kept in a greenhouse chamber under controlled conditions (temperature, light, atmospheric humidity) until the test has ended. […]
as §4
(§9) The compound I-2 was used as 10 WP. In each case, Marlipal® was added in an amount of 500 ml/ha.
(§10) Evaluation was carried out as early as 7 days after the application. • Maize 1=maize of the cultivar “Prinz” • Maize 2=maize of the cultivar “Pioneer” • Maize 3=maize of the cultivar “LIXIS”

maize cv. "Pioneer" = assay: Example A post-emergence test/greenhouse, crop damage, 0.1% Renex-36; details: 10 g of a.i./ha; Table A1; about three weeks after application
Protocol: The active compound or safener components are in each case dissolved in a few ml (generally 2-3 ml) of solvent (generally acetone or N,N-dimethyl-formamide), and the solutions are combined and then—if appropriate after addition of an emulsifier—diluted with water to the desired concentration. […] The test plants are grown under controlled conditions (temperature, light, atmospheric humidity) in a greenhouse. […] The concentration of the spray liquor is chosen such that the particular amounts of active compound desired are applied in 500 l of water/ha. After spraying, the pots with the test plants are kept in a greenhouse chamber under controlled conditions (temperature, light, atmospheric humidity) until the test has ended. About three weeks after the application, the degree of damage to the crop plants is rated in % damage in comparison to the development of the untreated control. […] Active compounds, application rates, test plants and results are shown in the tables below, the terms being used in the tables being as defined below: • maize=maize cv. “Pioneer” • a.i.=active ingredient=active compound/safener

[6] = system: maize of the cultivar "LIXIS"; assay: Example A-3 post-emergence test/greenhouse, crop damage, Maize 3; details: 7 days after the application, Table A-3-3
Protocol: as §1, §2, §8, §4, §9, §10

[7] = system: maize of the cultivar "Prinz"; assay: Example A-3 post-emergence test/greenhouse, crop damage, Maize 1; details: 7 days after the application, Table A-3-1
Protocol: as §1, §2, §8, §4, §9, §10

winter barley [8] = assay: Example A-2 post-emergence test/greenhouse, crop damage, 0.5% Renex-36
Protocol: as §1, §2, §3, §4
Here, an aqueous spray liquor comprising 0.5% of the additive Renex-36 was prepared.

CCOn1c(CC)nn(C(=O)NS(=O)(=O)c2c(C(=O)OC)csc2C)c1=O [I-17]
Damage winter barley (in %) (winter barley [1]; 8 g of a.i./ha, Table A-5-13): 70% | Damage winter barley (in %) (winter barley [1]; 15 g of a.i./ha, Table A-5-13): 70% | Damage winter barley (in %) (winter barley [1]; 30 g of a.i./ha, Table A-5-13): 80% | Damage winter wheat (in %) (winter wheat [2]; 8 g of a.i./ha, Table A-5-7): 40% | Damage winter wheat (in %) (winter wheat [2]; 15 g of a.i./ha, Table A-5-7): 50% | Damage winter wheat (in %) (winter wheat [2]; 30 g of a.i./ha, Table A-5-7): 70%

CCOC(=O)c1csc(C)c1S(=O)(=O)NC(=O)n1nc(OC)n(C)c1=O [I-13]
Damage winter wheat (in %) (winter wheat [2]; in vivo): 50%

CCOC(=O)C1=NN(c2ccc(Cl)cc2Cl)C(C)(C(=O)OCC)C1 (centres unmarked) [mefenpyr-diethyl, diethyl 1-(2,4-dichloro-phenyl)-4,5-dihydro-5-methyl-1H-pyrazole-3,5-dicarboxylate, reference compound]
Damage winter barley (in %) (winter barley [1]; safener alone 50 g of a.i./ha, Table A-5-11): 0% | Damage winter wheat (in %) (winter wheat [2]; safener alone 50 g of a.i./ha, Table A-5-1): 0% | Damage winter wheat (in %) (winter wheat [2]; safener alone 50 g of a.i./ha, Table A-5-2): 0% | Damage winter wheat (in %) (winter wheat [2]; safener alone 50 g of a.i./ha, Table A-5-3): 0% | Damage winter wheat (in %) (winter wheat [2]; safener alone 50 g of a.i./ha, Table A-5-4): 0% | Damage winter wheat (in %) (winter wheat [2]; safener alone 50 g of a.i./ha, Table A-5-5): 0% | Damage winter barley (in %) (winter barley [3]): 0% | Damage winter wheat (in %) (winter wheat [4]): 0%

COC(=O)c1csc(C)c1S(=O)(=O)NC(=O)n1nc(OC)n(C)c1=O [I-2]
Damage maize 2 (in %) ([5]; 8 g of a.i./ha): 10% | Damage maize 2 (in %) ([5]; 15 g of a.i./ha): 20% | Damage maize (in %) (maize cv. "Pioneer"): 35% | Damage Maize 3 (in %) ([6]; 8 g of a.i./ha): 20% | Damage Maize 3 (in %) ([6]; 15 g of a.i./ha): 40% | Damage Maize 1 (in %) ([7]; 8 g of a.i./ha): 10% | Damage Maize 1 (in %) ([7]; 15 g of a.i./ha): 20%

COC(=O)c1csc(C)c1S(=O)(=O)[N-]C(=O)n1nc(OC)n(C)c1=O.[Na+] [I-2, sodium salt]
Damage winter barley (in %) (winter barley [8]; 2 g of a.i./ha, Table A-2-1): 50% | Damage winter barley (in %) (winter barley [8]; 4 g of a.i./ha, Table A-2-1): 60%

COCC(=O)Nc1ccc(S(=O)(=O)NC(=O)c2ccccc2OC)cc1 [Comp. No. IId-25]
Damage winter barley (in %) (winter barley [8]; safener alone 30 g of a.i./ha, Table A-2-2): 0% | Damage winter barley (in %) (winter barley [8]; safener alone 100 g of a.i./ha, Table A-2-2): 0%
